Read-outs that look alike come from different tables or passages of the source. Numbered stars: 1 amine (or outer) side, 2 acyl side, 3 side chain; on linkers, the order of the positions; unused ones are H or OH. Bridge positions count the residues as written; N and C are the ends. Square brackets hold non-standard residues; d marks the D form. Peptide text beside a SMILES is read from it. I, II: the chains in the order shown. Actinocin(9to1) = Cc1c2oc3c(C)ccc(C(=O)[*:1])c3nc-2c(C(=O)[*:2])c(N)c1=O; NMeV = CN[C@H](C(=O)O)C(C)C; Sar = CNCC(=O)O
Key:
GST-BAK = target: T1, GST-BAK (Homo sapiens, UniProt Q16611); assay: Competitive fluorescence polarization assay (displacement of BID BH3 SAHB-F); assay type: binding
T1 construct: made in house
T1 sequence (Q16611 1-211): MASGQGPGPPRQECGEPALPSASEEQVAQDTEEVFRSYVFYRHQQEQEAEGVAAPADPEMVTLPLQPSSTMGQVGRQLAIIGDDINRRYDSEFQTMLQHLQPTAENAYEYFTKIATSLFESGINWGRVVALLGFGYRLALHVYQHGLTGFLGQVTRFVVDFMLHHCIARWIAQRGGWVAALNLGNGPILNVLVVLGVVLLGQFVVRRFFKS
Source text: We also tested the monosubstituted peptides in competitive fluorescence polarization (FP) binding assays, which measure displacement from GST-BAK of BID BH3 stabilized alpha helix of BCL-2 proteins (SAHB) C-terminally tagged with fluorescein and thus informs on peptide binding affinity.
We carried out fluorescence polarization assays, measuring the displacement of the fluorescent peptide BID BH3 SAHB-F from GST-BAK, in 384-well Greiner black polystyrene plates with flat bottom (Sigma-Aldrich). Master mix consisted of 50 mM Tris-HCl pH 7.5, 50 mM KCl, 0.1 mg/mL BSA, 2 mM DTT, 0.005% Tween-20, 10 nM BID BH3 SAHB-F, and 1 µM GST-BAK. We pin transferred peptides using Biomek FX (Beckman Coulter Life Sciences, IN) to achieve final concentration of 500−0.2 µM in 20 µL final volume. We gently centrifuged plates to remove air bubbles for 1 min at 1000 rpm, and incubated them for 60 min at RT. […] Free peptide controls in each plate consisted of only BID BH3 SAHB-F and bound peptide controls containing BID BH3 SAHB-F + GST-BAK. We derived Z’-values using the equation [1 − 3(stdev^L + stdev^H)]/(average^H − average^L), where L is the free peptide control and H is the bound peptide control. […] We processed and visualized data using the software Robust Investigation of Screening Experiments (RISE) developed in house in the Pipeline Pilot platform (Accelrys, v.8.5.0). We performed at least three independent dose-response experiments for each peptide. We estimated IC50 values in RISE and GraphPad Prism v.8.0a.

Human BAK-∆TM-His6 (BAK) = target: T2, Human BAK-∆TM-His6 (BAK) (Homo sapiens, UniProt Q16611); assay: Liposome permeabilization assay (ANTS/DPX dye release from LUVs): activation of WT BAK by BH3 peptides;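 for AUC for Experiment-2 (Mean): traces normalized between buffer minimum and 3% CHAPS maximum fluorescence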;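 for AUC for Experiment-3 (Mean): traces normalized between buffer minimum and 3% CHAPS maximum fluorescence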; assay type: biochemical; parameters: AUC for Experiment-2 (Mean) / AUC for Experiment-3 (Mean) / AUC for Experiment-1 (Mean):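 traces normalized between buffer minimum and 3% CHAPS maximum fluorescence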; conditions: for AUC for Experiment-1 (Mean) / AUC for Experiment-2 (Mean) / AUC for Experiment-3 (Mean): AUC 0-88 mins of liposome permeabilization; for AUC for Experiment-1 (Mean): Experiment-1, mean of N replicates; for AUC for Experiment-2 (Mean): Experiment-2, mean of N replicates; for AUC for Experiment-3 (Mean): Experiment-3, mean of N replicates; for EC50: Fig. 4e, AUC vs peptide dose (Suppl. Fig. 6b), n = 2 experiments each of n = 3 technical replicates, read-out: EC50 LP; for EC50 / direct BAK activation compared to WT BID BH3: 50 nM BAK; for direct BAK activation compared to WT BID BH3: liposome permeabilization, Fig. 4c, e
T2 construct: C-terminus truncated recombinant human BAK containing C-terminal 6× histidine tag (MEAS-BAK); made in house; host or cells: E. coli T7 Express pLac I/Y
T2 sequence (Q16611 1-186 limits assumed): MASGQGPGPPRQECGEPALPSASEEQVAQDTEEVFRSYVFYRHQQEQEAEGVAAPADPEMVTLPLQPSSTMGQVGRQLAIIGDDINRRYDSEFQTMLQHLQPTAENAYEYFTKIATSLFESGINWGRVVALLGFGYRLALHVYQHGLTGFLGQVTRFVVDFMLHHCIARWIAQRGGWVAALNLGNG
Method: We performed liposome permeabilization assays as previously described[43]–[46]. […] We mixed the lipid film in ANTS/DPX solution by vortexing and sonication (~15 min) followed by extrusion through polycarbonate membrane of 2 μm pore size (Avanti Polar lipids) to generate homogenous large unilamellar vesicles (LUVs). We separated LUVs from free ANTS/DPX by S500 size exclusion chromatography and stored them at 4 °C in the dark. We prepared peptide and protein dilutions in 96-well black flat bottom plates (Costar) kept on ice. […] We quantified liposome permabilization by integrating area under curve (AUC) of normalized traces based on the Simpson’s equation, and analyzed that data in Excel and GraphPad Prism. AUC measurements reflect the kinetic and extent of liposome permeabilization and provide quantitative means for comparison between different experimental conditions (e.g., BAK mutants with gross or partial variation in activity).

[1] = test system: bak−/− bax−/− HCT116 cells; assay: Apoptosis initiated by actinomycin D and TRAIL + CHX in cells constitutively expressing BAK; assay type: cell-based, human; conditions: AUC of SYTOX Green +ve counts/confluence, 0-48 hr, n = 3
Source text: We enriched for GFP positive cell populations by up to four rounds of sorting. Cells were used in apoptosis assays. […]
and doxycycline (Dox)-inducible mC-BAK. d, Representative i mmunoblot for BID and sypro red staining of BCL2allKO HCT116 cells expressing V74A and D83A mC-BAK and BID from n=2 independent experiments. e, Representative immunoblot of bak-/- bax- […]
from n=2 independent experiments . GFP positive cells were sorted three and four times to achieve similar expression levels. […]
human TRAIL and cycloheximide (CHX).
Data are presented as mean + SD for one representative of n=2 experiments each of n=3 technical replicates. g, Experimental […]
BAK (mC-BAK) monitored for 48 hr by IncuCyte imaging uptake of cell-impermeable dye SYTOX Green. AUC for kinetic traces is included. At 48 hr, we quantified percentage of SYTOX Green +ve cells (%) by fluorescence activated cell sorting (FACS). Data are presented as mean + SD from one of n=3 experiments each of n=3

[2] = competitive FP, mean of the experiments (replicated 4-9 times), read-out: IC50 Mean

| Molecule | AUC for Experiment-1 (Mean) (Human BAK-∆TM-His6 (BAK); 1 μM peptide + 50 nM BAK) | AUC for Experiment-2 (Mean) (Human BAK-∆TM-His6 (BAK); 1 μM peptide + 50 nM BAK) | AUC for Experiment-3 (Mean) (Human BAK-∆TM-His6 (BAK); 1 μM peptide + 50 nM BAK) | AUC for Experiment-1 (Mean) (Human BAK-∆TM-His6 (BAK); 50 μM peptide + 50 nM BAK) | AUC for Experiment-2 (Mean) (Human BAK-∆TM-His6 (BAK); 50 μM peptide + 50 nM BAK) | AUC for Experiment-3 (Mean) (Human BAK-∆TM-His6 (BAK); 50 μM peptide + 50 nM BAK) | EC50 (Human BAK-∆TM-His6 (BAK)) [µM] | direct BAK activation compared to WT BID BH3 (Human BAK-∆TM-His6 (BAK)) | IC50 (GST-BAK; competitive FP, Experiment-1) [µM] | IC50 (GST-BAK; competitive FP, Experiment-2) [µM] | IC50 (GST-BAK; competitive FP, Experiment-3) [µM] | IC50 (GST-BAK; competitive FP, Experiment-4) [µM] | IC50 (GST-BAK; competitive FP, Experiment-5) [µM] | IC50 (GST-BAK; competitive FP, Experiment-6) [µM] | IC50 (GST-BAK; competitive FP, Experiment-7) [µM] | IC50 (GST-BAK; competitive FP, Experiment-8) [µM] | IC50 (GST-BAK; competitive FP, Experiment-9) [µM] | IC50 (GST-BAK; [2]) [µM] | also measured |
| --- | --- | --- | --- | --- | --- | --- | --- | --- | --- | --- | --- | --- | --- | --- | --- | --- | --- | --- | --- |
| Ac-EDIIRNIARHLAQVGDSYDRSI-NH2 [Y(4)] | 22.669 | 26.226 | 23.05 | 21.941 | 27.175 | 24.539 | 0.213 ± 0.0082 | gain in direct BAK activation compared to WT BID BH3 |  |  |  |  |  |  |  |  |  |  | IC50 (GST-BAK; displacement of 10 nM BID BH3 SAHB-fluorescein from 1 µM GST-BAK, peptide 500−0.2 µM, 60 min RT, mean ± SD, n = 9 experiments, read-out: IC50 FP): 6.9 ± 5 µM |
| Cc1c2oc3c(C)ccc(C(=O)N[C@@H]4C(=O)N[C@H](C(C)C)C(=O)N5CCC[C@H]5C(=O)N(C)CC(=O)N(C)[C@@H](C(C)C)C(=O)O[C@@H]4C)c3nc-2c(C(=O)N[C@@H]2C(=O)N[C@H](C(C)C)C(=O)N3CCC[C@H]3C(=O)N(C)CC(=O)N(C)[C@@H](C(C)C)C(=O)O[C@@H]2C)c(N)c1=O [ActD] (I: T[dV]P[Sar][NMeV] / II: T[dV]P[Sar][NMeV]; ester I:1-I:C, II:1-II:C; linker I:N-II:N via Actinocin(9to1)) |  |  |  |  |  |  |  |  |  |  |  |  |  |  |  |  |  |  | AUC ActD ([1]; V74A 3x 15% + ActD 0.5): 753.275; AUC ActD ([1]; V74A 3x 15% + ActD 2): 847.336; AUC ActD ([1]; V74A 3x 15% + qVD + ActD 2): 104.738; AUC ActD ([1]; V74A 4x 15% + ActD 0.5): 679.364; AUC ActD ([1]; V74A 4x 15% + ActD 2): 932.591; AUC ActD ([1]; V74A 4x 15% + qVD + ActD 0.5): 208.982; AUC ActD ([1]; V74A 4x 15% + qVD + ActD 2): 91.8357; AUC ActD ([1]; WT 4x 15% + ActD 0.5): 821.8; AUC ActD ([1]; WT 4x 15% + ActD 2): 1113.4; AUC ActD ([1]; WT 4x 15% + qVD + ActD 0.5): 162.981; AUC ActD ([1]; WT 4x 15% + qVD + ActD 2): 59.6671 |
| CC[C@H](C)[C@H](NC(=O)[C@H](CC(N)=O)NC(=O)[C@H](CCCNC(=N)N)NC(=O)[C@@H](NC(=O)[C@@H](NC(=O)[C@H](CC(=O)O)NC(=O)[C@H](CCC(=O)O)NC(C)=O)[C@@H](C)CC)[C@@H](C)CC)C(=O)N[C@@H](C)C(=O)N[C@@H](CCCNC(=N)N)C(=O)N[C@@H](Cc1c[nH]cn1)C(=O)N[C@@H](CC(C)C)C(=O)N[C@@H](C)C(=O)N[C@@H](CCC(N)=O)C(=O)N[C@H](C(=O)NCC(=O)N[C@@H](CC(=O)O)C(=O)N[C@@H](CO)C(=O)N[C@@H](CCSC)C(=O)N[C@@H](CC(=O)O)C(=O)N[C@@H](CCCNC(=N)N)C(=O)N[C@@H](CO)C(=O)N[C@@H](Cc1c[nH]c2ccccc12)C(N)=O)C(C)C [W(5)] | 15.613 | 13.293 | 17.537 | 10.056 | 8.1041 | 9.4463 | 0.11 ± 0.0577 |  | 10.88 | 9.859 | 9.959 | 6.417 | 8.231 | 7.397 | 10.36 | 8.244 | 7.774 | 8.8 |  |
| Ac-EDIIRNIARHLAQWGDSMDRSI-NH2 [W(3)] | 14.061 | 9.0873 | 8.9347 | 8.5044 | 6.7192 | 7.8089 | 0.163 ± 0.0053 | less direct BAK activation compared to WT BID BH3 | 7.12 | 5.471 | 7.795 | 5.632 | 5.62 | 7.05 | 5.661 | 7.109 | 8.02 | 6.6 |  |
